This note sets out measurements from ChEMBL document CHEMBL4219085, “Discovery of isatin and 1H-indazol-3-ol derivatives as d-amino acid oxidase (DAAO) inhibitors” (Bioorg Med Chem, 2018).

The target in series [1] is T1, D-amino-acid oxidase (Homo sapiens, UniProt P14920). The series is described as follows: Inhibition of human DAAO at 20 uM using D-KYN as substrate preincubated for 20 mins followed by substrate addition measured after 30 mins by FP-6300-based fluorescence spectrometry.
Target sequence in this assay (P14920 whole entry, looked up): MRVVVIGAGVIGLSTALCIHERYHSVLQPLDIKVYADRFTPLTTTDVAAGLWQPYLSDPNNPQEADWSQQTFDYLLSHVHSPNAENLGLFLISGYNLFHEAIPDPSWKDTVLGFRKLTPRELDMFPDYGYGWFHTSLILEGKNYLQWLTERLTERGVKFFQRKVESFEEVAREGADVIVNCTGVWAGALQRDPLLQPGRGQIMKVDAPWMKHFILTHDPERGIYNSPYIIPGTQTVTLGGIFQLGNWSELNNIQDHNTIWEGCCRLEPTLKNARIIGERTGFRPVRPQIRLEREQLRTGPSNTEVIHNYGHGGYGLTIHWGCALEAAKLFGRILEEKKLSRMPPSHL
A short description of series [2]: Dissociation constant, pKa of the compound by UV-spectrophotometric titration method. In kind it is physicochemical.
The target of series [3] is T1, D-amino-acid oxidase. In words: Inhibition of human DAAO using D-KYN as substrate preincubated for 20 mins followed by substrate addition measured after 30 mins by FP-6300-based fluorescence spectrometry.
Target sequence in this assay (P14920 whole entry): as the sequence (P14920 whole entry, looked up) above
For series [4], the target named is D-amino-acid oxidase (Sus scrofa, UniProt P00371). In words: Binding affinity to pig kidney DAAO by ITC method. For orientation: Isothermal titration calorimetry measures the heat released or taken up as one component is titrated into another.
Sequence of D-amino-acid oxidase (Sus scrofa, UniProt P00371) (P00371 whole entry): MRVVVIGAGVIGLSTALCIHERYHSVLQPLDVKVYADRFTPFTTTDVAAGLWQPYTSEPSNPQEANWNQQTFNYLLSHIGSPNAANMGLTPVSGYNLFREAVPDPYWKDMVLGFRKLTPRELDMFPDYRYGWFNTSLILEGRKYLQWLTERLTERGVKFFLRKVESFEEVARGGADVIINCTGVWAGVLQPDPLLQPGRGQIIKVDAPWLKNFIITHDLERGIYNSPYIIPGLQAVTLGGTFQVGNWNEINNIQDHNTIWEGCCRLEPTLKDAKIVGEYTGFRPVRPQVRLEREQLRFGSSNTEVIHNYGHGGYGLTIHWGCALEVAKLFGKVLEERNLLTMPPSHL
The nature of series [5]: Effective permeability of the compound after 4 hrs at pH 5.5 to 7.4 by PAMPA. Format: ADME. As to conditions: read-out: Peff.
A short description of series [6]: Effective permeability of the compound assessed as membrane retention after 4 hrs at pH 5.5 to 7.4 by PAMPA. Format: ADME. As to conditions: pH 5.5, 4 h. In general terms: The PAMPA barrier holds no transporters, so it reflects passive diffusion.
Series [7] is described as follows: Effective permeability of the compound after 4 hrs at pH 6.5 to 7.4 by PAMPA. In kind it is ADME. As to conditions: read-out: Peff.
Series [8] in a line: Effective permeability of the compound assessed as membrane retention after 4 hrs at pH 6.5 to 7.4 by PAMPA. Format: ADME. As to conditions: pH 6.5, 4 h.
A short description of series [9]: Effective permeability of the compound after 4 hrs at pH 7.4 by PAMPA. In kind it is ADME. Conditions: read-out: Peff.
The nature of series [10]: Effective permeability of the compound assessed as membrane retention after 4 hrs at pH 7.4 by PAMPA. In kind it is ADME. Conditions: pH 7.4, 4 h.
Series [11] in a line: Elimination half life in NMRI mouse hepatic microsomes at 1 uM up to 90 mins by LC-MS/MS analysis. In kind it is ADME, microsome. Conditions: liver microsomes, read-out: beta t1/2. On the technique in general: Microsomes from liver hold many membrane-bound enzymes, among them those of drug oxidation.
Series [12] is described as follows: Intrinsic clearance in NMRI mouse hepatic microsomes at 1 uM up to 90 mins by LC-MS/MS analysis. Conditions: liver microsomes, read-out: CLH. In kind it is ADME, microsome.
The nature of series [13]: Elimination half life in NMRI mouse primary hepatocytes at 1 uM up to 240 mins by LC-MS/MS analysis. Conditions: read-out: beta t1/2. Format: ADME, cell-based, Hepatocyte.
Series [14] is described as follows: Intrinsic clearance in NMRI mouse primary hepatocytes at 1 uM up to 240 mins by LC-MS/MS analysis. Format: ADME, cell-based, Hepatocyte. Conditions: read-out: CLH.
Series [15] can be described thus: Elimination half life in human hepatic microsomes at 1 uM up to 90 mins by LC-MS/MS analysis. Format: ADME, microsome. Conditions: liver microsomes, read-out: beta t1/2.
Series [16] can be described thus: Intrinsic clearance in human hepatic microsomes at 1 uM up to 90 mins by LC-MS/MS analysis. In kind it is ADME, microsome. Conditions: liver microsomes, read-out: CLH.
Series [17] is described as follows: Elimination half life in human primary hepatocytes at 1 uM up to 240 mins by LC-MS/MS analysis. Format: ADME, cell-based, Hepatocyte. As to conditions: read-out: beta t1/2.
A short description of series [18]: Intrinsic clearance in human primary hepatocytes at 1 uM up to 240 mins by LC-MS/MS analysis. In kind it is ADME, cell-based, Hepatocyte. As to conditions: read-out: CLH.
Series [19] deals with Mus musculus. In words: Anti-schizophrenic activity in NMRI mouse assessed as increase in D-serine levels in blood at 30 mg/kg, ip measured after 10 mins by capillary electrophoresis laser induced fluorescence method. In kind it is functional.
Series [20] relates to Mus musculus. In words: Anti-schizophrenic activity in NMRI mouse assessed as increase in D-serine levels in blood at 30 mg/kg, ip measured after 60 mins by capillary electrophoresis laser induced fluorescence method. Format: functional.
Series [21] is described as follows: Drug level in blood of NMRI mouse assessed at 30 mg/kg, ip co-dosed with 30 mg/kg, ip D-serine measured after 10 mins. Format: ADME, organism-based. Conditions: read-out: Drug uptake.
The nature of series [22]: Drug level in blood of NMRI mouse assessed at 30 mg/kg, ip co-dosed with 30 mg/kg, ip D-serine measured after 60 mins. As to conditions: read-out: Drug uptake. In kind it is ADME, organism-based.
Series [23] has as its target T1, D-amino-acid oxidase. In words: Inhibition of DAAO (unknown origin).
Target sequence in this assay (P14920 whole entry): as the sequence (P14920 whole entry, looked up) above

In the case of `Oc1n[nH]c2cccc(Cl)c12`, the inhibition in series [1] turned out to be 19%. Also, the pKa in series [2] worked out at 7.51.

`Oc1noc2ccccc12` showed an IC50 in series [3] of 418 nM. Moreover, in series [4], binding was put at a Kd of 440 nM.

Turning to `Oc1cc(CCc2ccccc2)[nH]n1`, in [1], the inhibition worked out at 66%.

`Oc1n[nH]c2cc(F)ccc12` showed an IC50 in [3] of 120 to 123 nM. Moreover, the pKa in series [2] turned out to be 7.84. The Kd in series [4] worked out at 1000 nM. Also, the values for the Papp at 4 h in series [5], in [7] and in series [9] were 1.2 ×10⁻⁶ cm/s, 0.97 ×10⁻⁶ cm/s and 0.72 ×10⁻⁶ cm/s, respectively. The R% in [6] is 3.9%; in series [8] it was 7.1%; in series [10], 5.8%. Also, the half-life at […], 1 µM was 1.33 h in series [11] and 3.04 h in series [15]. Further, the results for the CLint scaled at […], 1 µM in series [12] and in series [16] were 8.29 mL/min/kg and 0.9 mL/min/kg, respectively. Moreover, the half-life at 1 µM in series [13] worked out at 2.97 h; in series [17] it was 6.86 h. Also, the CLint scaled at 1 µM in series [14] turned out to be 20 mL/min/kg; in [18] it was 2.78 mL/min/kg. The Activity is listed as 33% in series [19] and 27% in series [20]. Moreover, the concentration at 10 min in [21] stood at 13.1 µM. The concentration at 1 h in series [22] is 0.77 µM.

Compound `Oc1n[nH]c2ccc(Cl)cc12` yielded a pKa in series [2] of 7.53. For the same compound, the Kd in series [4] was found to be 780 nM.

As for `O=c1[nH][nH]c2ccc(Br)cc12`, in [4], the Kd stood at 3290 nM.

In series [3], `O=[N+]([O-])c1ccc2c(O)[nH]nc2c1` showed an IC50 of 1200 nM. The compound further displayed a pKa in series [2] of 6.52. This compound also registered a Kd in [4] of 4590 nM.

Take `Oc1n[nH]c2c(Cl)cccc12`: in series [3], the IC50 came out at 10100 nM. In addition, in series [2], the pKa is 7.28. In series [4], this compound yielded a Kd of 3310 nM.

`Oc1n[nH]c2cccc(Br)c12` returned an inhibition in [1] of 34%. The compound also displayed a pKa in [2] of 7.51.

`O=c1[nH][nH]c2ccccc12` yielded a pKa in series [2] of 8.16. Moreover, the Kd in [4] amounted to 4430 nM.

Regarding `Oc1noc2cc(Cl)ccc12`, in [4], the Kd amounted to 870 nM.

For `Oc1n[nH]c2cc(Cl)ccc12`, the IC50 in series [3] is 150 to 156 nM. Besides, the pKa in series [2] stood at 7.59. In series [4], this compound gave a Kd of 2000 nM. Moreover, the Papp at 4 h in series [5] was determined as 9.53 ×10⁻⁶ cm/s; in series [7], 7.43 ×10⁻⁶ cm/s; in series [9], 4.47 ×10⁻⁶ cm/s. In addition, the R% amounted to 6.7% in series [6], 9.7% in [8] and 2.5% in series [10]. The half-life at […], 1 µM in series [11] amounted to 0.942 h; in [15], 3.6 h. The CLint scaled at […], 1 µM is 11.7 mL/min/kg in [12] and 0.76 mL/min/kg in series [16]. For the same compound, the figures for the half-life at 1 µM in series [13] and in series [17] were 0.87 h and 7.51 h, respectively. The CLint scaled at 1 µM in [14] came out at 68.2 mL/min/kg; in series [18], 2.54 mL/min/kg.

In the case of `O=C1Nc2c(Cl)cccc2C1=O`, in series [23], the IC50 stood at 7870 nM. Besides, the pKa in series [2] was determined as 9.44.

In series [3], `Cc1cccc2c1NC(=O)C2=O` returned an IC50 of 13100 nM. This compound also came in with a Kd in series [4] of 8230 nM.

In series [4], `Oc1n[nH]c2ccc(F)cc12` returned a Kd of 1200 nM.

By inhibition is commonly meant how much of the control response was suppressed. One may read the pKa as the pH at which an ionisable group is half protonated. The low end stands for a group that gives up its proton readily, the high end for a group that holds its proton tightly. As a reminder, the IC50 is the midpoint of a concentration-inhibition curve. Low values mean higher potency, high ones lower potency. Usually Kd stands for the free concentration of one partner at which half of the binding sites on the other are occupied at equilibrium, for simple one-to-one binding. A higher Kd goes with weaker binding.
